In article PMC10746543, “Design principles for cyclin K molecular glue degraders” (Nature Chemical Biology, 2023):
Values joined by “and” are separate entries in the source; they are usually repeats but may differ in a detail not shown here. Identical values can stand only once. Like-named read-outs stand apart in the source and are kept apart here. Blank lines part the entries; values can stand above or below the molecule they belong to.

Experiments:
[1] = biological target: T1, CDK12–cyclin K and DDB1 (Homo sapiens, UniProt Q16531+Q9NYV4, K965R); test: TR-FRET ternary complex formation assay (compound titration); assay type: binding; conditions: for TR-FRET signal at compound concentration: replicate titrations
T1 construct: His6–CDK12 (a.a. 713–1,052); full-length or beta-propeller B domain deletion (ΔBPB: a.a. 396–705 deleted) constructs of His6–DDB1ΔBPB, StrepII–Avi–DDB1, or His6–Spy–DDB1; made in house; host or cells: Trichoplusia ni High Five insect cells (baculovirus)
T1 sequence (Q9NYV4 713-1052 K965R): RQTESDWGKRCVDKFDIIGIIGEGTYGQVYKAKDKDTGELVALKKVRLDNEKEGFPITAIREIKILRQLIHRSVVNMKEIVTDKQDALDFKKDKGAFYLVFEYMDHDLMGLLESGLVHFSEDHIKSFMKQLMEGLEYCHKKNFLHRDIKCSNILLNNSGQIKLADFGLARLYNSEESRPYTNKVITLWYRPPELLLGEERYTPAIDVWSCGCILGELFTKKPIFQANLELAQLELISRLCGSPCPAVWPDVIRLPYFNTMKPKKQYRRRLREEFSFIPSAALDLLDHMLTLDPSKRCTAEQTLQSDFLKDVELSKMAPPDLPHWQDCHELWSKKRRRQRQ
T1 sequence (O75909 1-267 partner): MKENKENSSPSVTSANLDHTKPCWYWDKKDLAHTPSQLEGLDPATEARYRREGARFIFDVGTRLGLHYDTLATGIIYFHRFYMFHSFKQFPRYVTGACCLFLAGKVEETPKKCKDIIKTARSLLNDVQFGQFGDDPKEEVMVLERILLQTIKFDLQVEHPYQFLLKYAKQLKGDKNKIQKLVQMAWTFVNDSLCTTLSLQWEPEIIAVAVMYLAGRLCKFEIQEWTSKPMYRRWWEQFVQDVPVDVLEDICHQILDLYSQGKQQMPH
T1 sequence (Q16531 whole entry): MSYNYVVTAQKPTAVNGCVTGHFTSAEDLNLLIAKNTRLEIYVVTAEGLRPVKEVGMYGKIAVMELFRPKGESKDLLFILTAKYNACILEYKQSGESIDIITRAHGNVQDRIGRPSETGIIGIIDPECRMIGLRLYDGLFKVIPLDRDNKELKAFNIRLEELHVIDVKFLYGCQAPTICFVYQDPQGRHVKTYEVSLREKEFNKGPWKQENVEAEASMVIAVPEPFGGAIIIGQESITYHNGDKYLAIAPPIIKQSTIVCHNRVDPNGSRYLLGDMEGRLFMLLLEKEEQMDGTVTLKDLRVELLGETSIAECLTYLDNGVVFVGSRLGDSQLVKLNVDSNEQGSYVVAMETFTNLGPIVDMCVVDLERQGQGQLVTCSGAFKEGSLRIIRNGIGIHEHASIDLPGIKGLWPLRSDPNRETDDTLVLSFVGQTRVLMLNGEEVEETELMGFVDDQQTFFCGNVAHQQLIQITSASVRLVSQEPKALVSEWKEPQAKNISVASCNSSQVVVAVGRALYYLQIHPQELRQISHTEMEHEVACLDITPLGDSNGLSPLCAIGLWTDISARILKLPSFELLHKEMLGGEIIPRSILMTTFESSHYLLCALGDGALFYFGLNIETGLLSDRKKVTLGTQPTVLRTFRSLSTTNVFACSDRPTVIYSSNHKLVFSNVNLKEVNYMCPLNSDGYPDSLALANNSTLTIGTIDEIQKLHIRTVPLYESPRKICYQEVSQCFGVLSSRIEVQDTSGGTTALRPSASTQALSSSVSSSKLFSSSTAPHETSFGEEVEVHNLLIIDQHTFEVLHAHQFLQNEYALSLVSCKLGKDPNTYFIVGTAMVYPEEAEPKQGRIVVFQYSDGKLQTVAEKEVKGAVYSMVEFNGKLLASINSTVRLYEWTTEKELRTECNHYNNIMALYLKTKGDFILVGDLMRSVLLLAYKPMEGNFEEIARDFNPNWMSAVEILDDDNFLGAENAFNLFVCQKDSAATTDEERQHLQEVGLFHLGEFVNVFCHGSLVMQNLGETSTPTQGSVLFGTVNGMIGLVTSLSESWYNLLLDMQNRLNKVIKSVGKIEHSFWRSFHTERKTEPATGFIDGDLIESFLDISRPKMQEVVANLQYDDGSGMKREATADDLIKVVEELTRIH
Source text: A 70 μs delay was employed to reduce background fluorescence. The TR-FRET signal was obtained through calculating the ratio of 520 nm to 490 nm fluorescence, and Prism 9 (GraphPad) was used for further data analysis.

[2] = system: HEK293T cells; test: Drug sensitivity assay (CellTiter-Glo viability) with or without MLN4924 pretreatment; assay type: cell-based, human; conditions: Supplementary Table 2; for EC50: Homo sapiens, HEK-293T, HEK293T viability, 72 h, compound alone, read-out: Cellular assays EC50; for Toxicity rescue: MLN4924-mediated cytotoxicity rescue, 10 µM used where n.d.
Experimental: HEK293T–Cas9 cells were resuspended at 0.15 × 10^6 ml^−1 treated with DMSO or 100 nM MLN4924 and plated on 384-well plates. After 2 h, the indicated drugs were dispensed with a D300 digital dispenser (Tecan). After 3 days of drug exposure, cell viability was assessed using the CellTiter-Glo luminescent assay (Promega, G7572) on an CLARIOstar Plus, MARS 3.4 (BMG LabTech). Cell viabilities were calculated relative to DMSO controls.

[3] = Supplementary Table 2, read-out: TR-FRET EC50 TR-FRET
[4] = compound concentration 79.2001 nM
[5] = compound concentration 158.4 nM
[6] = compound concentration 309.6 nM
[7] = compound concentration 626.401 nM
[8] = compound concentration 1252.8 nM
[9] = compound concentration 9936.01 nM
[10] = compound concentration 20016 nM
[11] = in vitro complex formation, 50 nM CDK12–cyclin K, 100 nM DDB1, text and figures, read-out: TR-FRET EC50

Compound: Cn1cc(-n2cnc3c(NCc4nc5ccccc5[nH]4)nc(N4CCOCC4)nc32)cn1 [DS55]
EC50 [1, 3]: 0.0356 µM
TR-FRET signal ([1]; compound concentration 0.468 nM): 0.2624 and 0.2805
TR-FRET signal at compound concentration 0.468 nM ([1]; compound concentration 0.468 nM, raw replicate titration data): 0.2624 and 0.2805
TR-FRET signal ([1]; compound concentration 2.16 nM): 0.2884 and 0.3105
TR-FRET signal at compound concentration 2.16 nM ([1]; compound concentration 2.16 nM, raw replicate titration data): 0.2884 and 0.3105
TR-FRET signal ([1]; compound concentration 3.6 nM): 0.3317 and 0.3563
TR-FRET signal at compound concentration 3.6 nM ([1]; compound concentration 3.6 nM, raw replicate titration data): 0.3317 and 0.3563
TR-FRET signal ([1]; compound concentration 7.92001 nM): 0.4199 and 0.4425
TR-FRET signal at compound concentration 7.92001 nM ([1]; compound concentration 7.92001 nM, raw replicate titration data): 0.4199 and 0.4425
TR-FRET signal ([1]; compound concentration 15.84 nM): 0.5444 and 0.5762
TR-FRET signal at compound concentration 15.84 nM ([1]; compound concentration 15.84 nM, raw replicate titration data): 0.5444 and 0.5762
TR-FRET signal ([1]; compound concentration 30.96 nM): 0.7696 and 0.7908
TR-FRET signal at compound concentration 30.96 nM ([1]; compound concentration 30.96 nM, raw replicate titration data): 0.7696 and 0.7908
TR-FRET signal ([1]; compound concentration 62.6401 nM): 1.019 and 1.061
TR-FRET signal at compound concentration 62.6401 nM ([1]; compound concentration 62.6401 nM, raw replicate titration data): 1.019 and 1.061
TR-FRET signal ([1]; compound concentration 125.28 nM): 1.199 and 1.278
TR-FRET signal at compound concentration 125.28 nM ([1]; compound concentration 125.28 nM, raw replicate titration data): 1.199 and 1.278
TR-FRET signal ([1]; compound concentration 244.8 nM): 1.2725 and 1.386
TR-FRET signal at compound concentration 244.8 nM ([1]; compound concentration 244.8 nM, raw replicate titration data): 1.2725 and 1.386
TR-FRET signal ([1]; compound concentration 993.601 nM): 1.352 and 1.424
TR-FRET signal at compound concentration 993.601 nM ([1]; compound concentration 993.601 nM, raw replicate titration data): 1.352 and 1.424
TR-FRET signal ([1]; compound concentration 2001.6 nM): 1.301 and 1.386
TR-FRET signal at compound concentration 2001.6 nM ([1]; compound concentration 2001.6 nM, raw replicate titration data): 1.301 and 1.386
EC50 [1, 11]: 0.036 ± 0.002 µM
EC50 [2]: 1.03 µM
Toxicity rescue [2]: 336%

Compound: Cn1cc(-n2cnc3c(NCc4ccc(OCCO)cc4)nc(N4CCOCC4)nc32)cn1 [DS62]
EC50 [1, 3]: ~2.2 µM
TR-FRET signal ([1]; compound concentration 4.68 nM): 0.2045 and 0.2293
TR-FRET signal ([1]; compound concentration 21.6 nM): 0.2001 and 0.225
TR-FRET signal ([1]; compound concentration 36 nM): 0.2055 and 0.2312
TR-FRET signal [1, 4]: 0.2131 and 0.2461
TR-FRET signal [1, 5]: 0.2289 and 0.2537
TR-FRET signal [1, 6]: 0.2472 and 0.27
TR-FRET signal [1, 7]: 0.294 and 0.3255
TR-FRET signal [1, 8]: 0.3562 and 0.4045
TR-FRET signal ([1]; compound concentration 2448 nM): 0.4507 and 0.5009
TR-FRET signal [1, 9]: 0.6036 and 0.6674
TR-FRET signal [1, 10]: 0.6334 and 0.6963
DDB1–CDK12 complex formation, result in words ([1]; in vitro TR-FRET): incompatible with the DDB1–CDK12 interface
EC50 [1, 11]: 2.2 ± 0.326 µM
EC50 [2]: > 10 µM
Toxicity rescue [2]: 0%

Compound: CC[C@H](CO)Nc1nc(NCc2ccccc2)c2ncn(C(C)C)c2n1 [Roscovitine]
Toxicity rescue [2]: 0%

More lines, main results first:

EC50 [1, 3]: 0.627 µM
TR-FRET signal at compound concentration ([1]; compound concentration 4.68 nM): 0.1284 and 0.1304
TR-FRET signal at compound concentration ([1]; compound concentration 21.6 nM): 0.1505 and 0.151
TR-FRET signal at compound concentration ([1]; compound concentration 36 nM): 0.1775 and 0.1803
TR-FRET signal at compound concentration [1, 4]: 0.2245 and 0.2264
TR-FRET signal at compound concentration [1, 5]: 0.2818 and 0.3032
TR-FRET signal at compound concentration [1, 6]: 0.3899 and 0.4001
TR-FRET signal at compound concentration [1, 7]: 0.5107 and 0.5141
TR-FRET signal at compound concentration [1, 8]: 0.639 and 0.6296
TR-FRET signal at compound concentration ([1]; compound concentration 2448 nM): 0.7343 and 0.7319
TR-FRET signal at compound concentration [1, 9]: 0.8755 and 0.8533
TR-FRET signal at compound concentration [1, 10]: 0.861 and 0.8686
Compound: CC[C@H](CO)Nc1nc(NCCCCn2c(=O)oc3ccccc32)c2ncn(C(C)C)c2n1 [DS46]
EC50 [2]: > 10 µM
Toxicity rescue [2]: 0%

TR-FRET signal at compound concentration 4.68 nM ([1]; compound concentration 4.68 nM, raw replicate titration data): 0.1981 and 0.2221
TR-FRET signal at compound concentration 21.6 nM ([1]; compound concentration 21.6 nM, raw replicate titration data): 0.2108 and 0.2312
TR-FRET signal at compound concentration 36 nM ([1]; compound concentration 36 nM, raw replicate titration data): 0.221 and 0.2484
TR-FRET signal at compound concentration 79.2001 nM ([1]; compound concentration 79.2001 nM, raw replicate titration data): 0.2309 and 0.2483
TR-FRET signal at compound concentration 158.4 nM ([1]; compound concentration 158.4 nM, raw replicate titration data): 0.2488 and 0.2752
TR-FRET signal at compound concentration 309.6 nM ([1]; compound concentration 309.6 nM, raw replicate titration data): 0.2871 and 0.3205
TR-FRET signal at compound concentration 626.401 nM ([1]; compound concentration 626.401 nM, raw replicate titration data): 0.3642 and 0.3972
TR-FRET signal at compound concentration 1252.8 nM ([1]; compound concentration 1252.8 nM, raw replicate titration data): 0.4852 and 0.5291
TR-FRET signal at compound concentration 2448 nM ([1]; compound concentration 2448 nM, raw replicate titration data): 0.6251 and 0.6926
TR-FRET signal at compound concentration 9936.01 nM ([1]; compound concentration 9936.01 nM, raw replicate titration data): 0.9055 and 1.021
TR-FRET signal at compound concentration 20016 nM ([1]; compound concentration 20016 nM, raw replicate titration data): 0.9207 and 1.03
EC50 [1, 11]: 2.11 ± 0.252 µM
Compound: Cn1cc(-n2cnc3c(NCc4cc5ccccc5[nH]4)nc(N4CCOCC4)nc32)cn1 [DS56]
